In patent US20230321101A1, “METHODS AND USES OF HALOFUGINONE” (The Regents of the University of California, priority 2020, published 2023):
“Also recorded” adds a separate entry of the source. Where two headings read alike, the source gives them in different places.

Experiments:
[1] = system: cell surface heparan sulfate of Vero E6 cells; experiment: Heparan sulfate presentation by anti-HS mAb 10E4 staining of Vero E6 cells; assay type: cell-based, African green monkey; settings: Vero E6, 18 h
[2] = system: core HSPGs in Hep3B cells; experiment: HSPG core proteins by SDS-PAGE with mAb 3G10 in Hep3B cells; assay type: cell-based, human
[3] = system: authentic SARS-CoV-2; assay type: cell-based
[4] = system: Huh 7.5 cells; experiment: Cell viability of Huh 7.5 cells, alamarBlue; assay type: cell-based, human; settings: Huh 7.5, 24 hr
Experimental: FIG. 28. Cell viability in Huh 7.5 cells after treatment for 24 hours with Halofuginone. Cell viability was measured using alamarBlue staining in HuH 7.5 cells at indicated concentrations of halofuginone after a 24 hr treatment (n=3 per dose). Data shown as mean±S.D. Statistics performed by 1-way ANOVA (ns: p>0.05, *:p≤0.01).
Cell Culture. Huh-7.5 cells^1 were generously provided by Charles M. Rice (Rockefeller University, New York, NY). Hep3B, BHK-15 and Calu-3 cells were from ATCC and were grown in DMEM medium containing 10% % fetal bovine serum, and 100 IU/ml of penicillin, 100 μg/ml of streptomycin sulfate and nonessential amino acids. BHK-15 were grown in Modified Eagle's supplemented with 10% fetal bovine serum and nonessential amino acids (Gibco, #11140-050). Hep3B, A375 and Vero E6 cells were from ATCC. The Hep3B cells carrying mutations in HS biosynthetic enzymes was derived from the parent ATCC Hep3B stock, and have been described previously^2. All cells were supplemented with 10% FBS, 100 IU/ml of penicillin and 100 μg/ml of streptomycin sulfate and grown under an atmosphere of 5% CO2 and 95% air. Cells were passaged before 80% confluence was reached and seeded as explained for the individual assays. Cell viability was measured using LDH leakage (Promega) or alamarBleu (Thermo Fisher).

[5] = system: authentic SARS-CoV-2; experiment: microbe, parasite or virus in culture; assay type: cell-based
[6] = system: authentic SARS-COV-2 virus; experiment: SARS-CoV-2 infected golden hamsters, intraperitoneal halofuginone; assay type: in vivo; settings: for viral titer (TCID50 from nasal washes): 200 μg/kg intraperitoneally daily
Experimental: FIG. 35A, FIG. 35B, and FIG. 35C.
Six golden hamsters were dosed at 200 μg/kg with halofuginone starting at day −1, infected at day 0 with authentic SARS-COV-2 virus, and every day for five more days they received 200 μg/kg of halofuginone (FIG. 35A). Dosing was done intraperitoneally. A control group (n=6) was administered PBS. On day 3, half of the animals (n=3) in each group was sacrificed, and at day 5 the remaining animals (n=3) were sacrificed. TCID50 values as a measure of SARS-CoV-2 infectivity were measured from nasal washes at day 3 and day 5; the values were determined by viral cytopathic effect.

[7] = system: hepcidin expression; experiment: Hepcidin expression in the mouse liver upon iron loading; assay type: in vivo; settings: mice, 1 μg per mouse per day for 8 days, iron-rich diet (8.3 g/kg) for 7 days
Experimental: FIG. 10. […] Mice treated with Halofuginone for 8 days, 1 μg per mouse per day. Mice were either on normal iron-balanced chow (0.2 g/kg) or iron-rich diet (8.3 g/kg) for 7 days in conjunction with the treatment.

[8] = system: recombinant SARS-CoV-2 spike RBD protein binding to Caco-2 cells
[9] = mice, cited from earlier work

With `O=C(CC1NCCCC1O)Cn1cnc2cc(Br)c(Cl)cc2c1=O` (racemic) [halofuginone] the “effect on heparan sulfate presentation (10E4 binding)” value [1] was 10E4 binding increased and did not significantly alter heparan sulfate production and presentation, the “effect on heparan sulfate presentation (10E4 binding)” value ([1]; listed as Halofuginone) was “did not decrease cellular HS” and the “expression of core HSPGs (mAb 3G10)” value [2] was “reduced the expression of core HSPGs in a dose-dependent manner”. For the same compound, the “infectious SARS-CoV-2 in supernatants (plaque assay)” value [3] was “No infectious SARS-CoV-2 could be detected; also recorded: No virus was detected”, the cell viability [4] was “without affecting cell viability” and the IC50 ([5]; Severe acute respiratory syndrome coronavirus 2, Vero C1008, Vero E6, excess proline in the media (4 mM), read-out: IC50 of SARS-CoV-2 infection, proline rescue experiment) was 0.21 µM. For the same compound, the IC50 ([5]; Severe acute respiratory syndrome coronavirus 2, Vero C1008, Vero E6, without excess proline, read-out: IC50 of SARS-CoV-2 infection, proline rescue experiment) was 0.0125 µM, the IC50 ([5]; Severe acute respiratory syndrome coronavirus 2, Vero C1008, Vero E6, read-out: IC50 of SARS-CoV-2 infectivity, enantiomer comparison) was 0.028 µM and the IC50 ([5]; Severe acute respiratory syndrome coronavirus 2, Vero C1008, read-out: IC50 of SARS-CoV-2 infection) was 0.013 µM. For the same compound, the “effect on authentic SARS-CoV-2 infection” value ([5]; Vero E6) was “inhibit SARS-CoV-2 infection”, the “potency compared to chloroquine” value ([5]; Vero E6) was 100 fold and the “inhibition of SARS-CoV-2 infectivity” value ([5]; Vero E6, 50 nM) was “completely inhibited SARS-CoV-2 infectivity”. The “inhibition of SARS-CoV-2 infectivity” value ([5]; Vero E6, doses greater than 10 nM) was “complete inhibition of SARS-CoV-2 infectivity”, the “viral titer (TCID50 from nasal washes)” value ([6]; day 3 and day 5) was “significantly reduced viral titer by day 5 post infection” and the “viral titer (TCID50 from nasal washes)” value ([6]; day 3 and day 5, listed as Halofuginone) was “potent anti-viral efficacy”. For the same compound, the body weight ([6]; 200 μg/kg intraperitoneally, day -1 to day 5) was “no deleterious effect on body weight”, the “hepcidin expression in the liver” value [7] was “reduces hepcidin expression in the mouse liver” and the “effect on spike (RBD) protein binding” value [8] was “dose-dependently inhibited spike protein binding”. For the same compound, the “effect on spike (RBD) protein binding” value ([8]; listed as Halofuginone) was “reduced spike RBD protein binding”, the “exposure (area under the curve) in the lung compared to plasma” value ([9]; single intravenous injection) was “more than 87 fold” and the tissue distribution [9] was “highest tissue concentrations in the lung and kidney”.
